Experiments:
mouse acinar cells = experiment: Total cholesterol content of mouse acinar cells (ex vivo pancreatitis models or cholesterol chelator); assay type: cell-based; design: total cholesterol in acinar cells, physiologic doses: dose or concentration left out as unconfirmed; details: for cholesterol overload, mouse acinar cells: ex-vivo pancreatitis, 1 h, 100 nM CCK, 1 mM carbachol or 500 μM TLCS
Experimental: (§1) FIGS. 8A-8M show derangement of cholesterol metabolism in experimental pancreatitis. Characteristics of cholesterol metabolism were measured, as detailed in FIGS. 4A-4R, in pancreas of WT mice subjected to pancreatitis induced with cerulein (CER-AP), L-arginine (Arg-AP), or CDE diet (CDE-AP) (A, B, and E-G); ex vivo pancreatitis induced in WT mouse (C and I-M) or human acinar cells (D) with 100 nM CCK (CCK-AP) or 1 mM carbachol; and isolated pancreatic mitochondria (H). (B) Cholesterol ester (CE) heatmap; each column represents an individual mouse. (F) IB analysis of the indicated proteins. (G) LAL activity was measured by a fluorogenic assay (n=6 mice per condition). (H) Cholesterol content was measured by enzymatic assay. (I-M) Filipin colocalization with indicated proteins was quantified as detailed in FIGS. 2A-2L. Each symbol in A, C-E, and H represents an individual mouse, or cell or mitochondria preparation (n=3-15 per condition). Each symbol in J, K, and M corresponds to 20-30 cells in a different field (n=10-20 fields from 3 cell preparations per condition). Values are mean±SEM. *P<0.05, **P<0.01, ***P<0.001 vs. the same parameter in control/untreated pancreas, acinar cells or isolated mitochondria. Significance was determined by 2-tailed Student's t test (B, E, H, J, K, and M) or 1-way ANOVA followed by Tukey's multiple comparison test (A, C, and D). Scale bars: 10 μm.
(§2) Parameters of cholesterol metabolism were measured in (A, B, E, F) pancreas of mice subjected to pancreatitis induced with cerulean (CER-AP), L-arginine (Arg-AP), or combination of EtOH+palmitoleic acid (EtOH+POA); and (C) ex-vivo models on mouse and human acinar cells treated for 1 h with 100 nM CCK, […] or 500 μM TLCS. In (A), each column in CE heatmap represents an individual mouse. (B, C) Total cholesterol content was measured with cholesterol assay kit (Abcam, ab65390). […] Each symbol corresponds to 20-30 cells in each of 8 high-expression (qPCR) of proteins regulating cholesterol synthesis (4 mice/group). (B-D) Each symbol represents an individual animal or cell preparation. (A-D, F) Values are mean±SE (*p<0.05, **p<0.01, ***p<0.001 vs saline or control). Signficance was determined by 2-tailed student's t test.
(§3) Ex vivo pancreatitis models were performed on mouse and human acinar cells, and human pancreas slices by incubation with supramaximal CCK (100 nM) or carbachol (1 mM), as described previously (80, 81).
(§4) Total cholesterol content was measured with Cholesterol Assay kit per manufacturer's instructions. Samples of mouse pancreas and liver, cell pellet homogenates, subcellular fractions, isolated mitochondria, and serum were diluted in the reaction buffer containing cholesterol probe and incubated at 37° C. for 1 h in the dark. To measure total cholesterol, the samples were subjected to digestion with cholesterol esterase. To measure non-esterified cholesterol, the esterase was omitted from the assay.
Fluorescence intensity (for cholesterol) and absorbance (for TAG) were measured in a Tecan microplate reader. Each measurement was in duplicate, and the values were normalized per mg total protein in the sample.

human acinar cells = experiment: Total cholesterol content of human acinar cells (ex vivo pancreatitis models); assay type: cell-based; details: for cholesterol overload, human acinar cells: ex-vivo pancreatitis, 1 h, 100 nM CCK, 1 mM carbachol or 500 μM TLCS
Experimental: as §1, §2, §3
Human pancreas slices were obtained as in (12), from portions of live normal human pancreata from pre-terminal donors that were not used for transplantation and diverted to research (provided by Trillium Gift of Life Network, Toronto, Ontario, year 2020) or from normal portions of pancreatic cancer operations. Pancreas was cut into ~3×3×3 mm pieces and embedded with 37° C. low melting 3.8% agarose gel in extracellular solution containing (mM): 125 NaCl, 2.5 KCl, 1 MgCl2, 2 CaCl2, 1.25 NaH2PO4, 26 NaHCO3, 2 sodium pyruvate, 0.25 ascorbic acid, 3 myo-inositol, 6 lactic acid, and 7 glucose, and placed on ice to solidify the gel. The gelled tissue blocks were sliced with Vibratome into 120 μm-thick slices; slices were washed with the same extracellular solution, placed in 199 medium containing 0.1 mg/mL soybean trypsin inhibitor, and treated with CCK-8 (CCK) or carbachol for ex-vivo pancreatitis.
Total cholesterol content was measured with Cholesterol Assay kit per manufacturer's instructions. […]

NPC1 [1] = target: T1, NPC1 (Mus musculus, UniProt O35604); experiment: Effects of NPC1 inhibitor U18666A on WT mouse pancreas; assay type: in vivo; details: 15 days
T1 sequence (O35604 23-1277): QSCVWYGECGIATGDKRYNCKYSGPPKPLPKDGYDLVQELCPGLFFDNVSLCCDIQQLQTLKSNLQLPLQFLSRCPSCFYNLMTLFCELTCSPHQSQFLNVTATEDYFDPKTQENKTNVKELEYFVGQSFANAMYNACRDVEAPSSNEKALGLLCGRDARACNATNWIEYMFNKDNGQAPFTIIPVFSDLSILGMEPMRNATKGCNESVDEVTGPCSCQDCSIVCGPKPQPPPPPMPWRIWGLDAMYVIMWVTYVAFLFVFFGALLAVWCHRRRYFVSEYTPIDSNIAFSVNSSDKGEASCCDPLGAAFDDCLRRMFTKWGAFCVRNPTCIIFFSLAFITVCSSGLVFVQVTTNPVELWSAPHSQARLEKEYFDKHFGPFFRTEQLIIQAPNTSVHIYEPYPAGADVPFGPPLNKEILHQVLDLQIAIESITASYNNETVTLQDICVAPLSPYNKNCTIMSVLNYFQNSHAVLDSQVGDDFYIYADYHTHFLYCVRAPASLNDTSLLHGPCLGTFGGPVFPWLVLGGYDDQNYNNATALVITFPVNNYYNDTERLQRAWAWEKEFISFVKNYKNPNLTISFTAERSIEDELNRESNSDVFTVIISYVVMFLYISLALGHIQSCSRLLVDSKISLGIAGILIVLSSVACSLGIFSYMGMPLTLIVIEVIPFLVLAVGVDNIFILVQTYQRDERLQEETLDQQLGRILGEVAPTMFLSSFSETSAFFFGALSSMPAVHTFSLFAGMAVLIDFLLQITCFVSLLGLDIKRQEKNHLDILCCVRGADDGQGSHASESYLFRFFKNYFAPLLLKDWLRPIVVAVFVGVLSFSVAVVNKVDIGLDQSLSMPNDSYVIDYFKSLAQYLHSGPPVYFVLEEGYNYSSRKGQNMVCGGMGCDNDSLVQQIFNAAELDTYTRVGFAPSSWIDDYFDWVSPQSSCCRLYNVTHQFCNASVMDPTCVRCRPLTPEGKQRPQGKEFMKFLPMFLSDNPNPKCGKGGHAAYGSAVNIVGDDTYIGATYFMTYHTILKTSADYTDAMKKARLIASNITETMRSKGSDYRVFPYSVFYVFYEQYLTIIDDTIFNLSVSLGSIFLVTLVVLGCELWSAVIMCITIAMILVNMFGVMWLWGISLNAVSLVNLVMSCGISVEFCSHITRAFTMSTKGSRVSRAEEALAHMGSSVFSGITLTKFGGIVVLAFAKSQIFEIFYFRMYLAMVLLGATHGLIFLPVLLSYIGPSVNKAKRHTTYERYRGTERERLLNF
Experimental: FIGS. 9A-9E show cerulein pancreatitis decreases pancreatic levels of GNPTAB and mediators of cholesterol trafficking through LE/Ly. (A, D, and E) IB analysis of the indicated proteins in pancreas of WT mice subjected to CER-AP and in Gnptab^−/− mice. NS, nonspecific band. (B and C) Cholesterol content was measured in pancreas of (B) WT mice that received daily i.p. injections of the NPC1 inhibitor U18666A (10 mg/kg) or vehicle for 15 days and (C) Lamp2^−/− mice. Each symbol in B, C, and E represents an individual mouse. Values are mean±SEM from 3 to 5 mice per condition. ***P<0.001 vs. the same parameter in WT control/untreated or saline-treated mice. Significance was determined by 2-tailed Student's t test (B and C) or 1-way ANOVA followed by Tukey's multiple comparison test (E).
(§5) FIGS. 10A-10N show deranged cholesterol metabolism causes acinar cell damage, while its normalization ameliorates experimental pancreatitis. (A-D) Cholesterol content and trypsin activity were measured (per mg protein) in WT mouse acinar cells incubated for 1 hour without and with methyl-β-cyclodextrin (MCD; 10 mM) or cholesterol-loaded MCD (MCD-Chol; 200 μg/mL), in the presence or absence of 100 nM CCK. Values are expressed relative to those in cells without MCD/MCD-Chol. (E-J) WT mice received daily i.p. injections of the LXR agonist T0901317 (T09), simvastatin (Sim; 20 mg/kg each), or vehicle. On day 4, mice were subjected to CER-AP and pancreata collected for analyses (see also FIG. 20). Cholesterol content (E), trypsin activity (F), and pancreas histopathology (H&E staining; G) were measured. (H, I, L, and N) IB analysis of markers/mediators of autophagy (LC3, p62), ER stress (CHOP, GRP-78), and mitophagy (Parkin). Ub, ubiquitylated proteins. (J) Mitochondrial fragmentation was assessed by immunostaining for Tom20, as detailed in FIG. 7G. (K and L) Mouse acinar cells were treated for 16 hours with LDL (30 μg/mL) or the combination of LDL and 10 μM U18666A. (M and N) Mice received injections of U18666A as detailed in FIG. 9B. Pancreas histopathology (H&E staining; M) and levels of autophagy markers/mediators (N) were measured. Each symbol in A-F and I represents an individual mouse or cell preparation. Values are mean±SEM from 3 to 7 mice or cell preparations per condition. ^§ P<0.05, ^§§ P<0.01 vs. control cells (without MCD/MCD-Chol). ***P<0.001 vs. saline-treated mice. ^#P<0.05, ^##P<0.01, ^###P<0.001 vs. CER-AP alone (no inhibitors). Significance was determined by 2-tailed Student's t test (A-D) or 1-way ANOVA followed by Tukey's multiple comparison test (E, F, and I). Scale bars: 10 μm.
viii. In Vivo Treatments of Mice
12-week-old WT mice were subjected for 4 consecutive days to daily i.p. injections of 20 mg/kg simvastatin (8,9) or 20 mg/kg T0901317 (10); or 10 mg/kg U18666A for 15 days (11). Control mice received vehicle injections. Some of the simvastatin- and T0901317-treated mice were subjected to CER-AP on day 4, as indicated in corresponding figures.
as §4
Pancreatitis responses were measured as previously described (1-7). Serum amylase and lipase were measured in a Hitachi 707 analyzer. Acinar cell vacuolization and necrosis were quantified on H&E stained pancreatic tissue sections; at least 1000 acinar cells/mouse were analyzed in several high-power fields. ATP was measured in tissue homogenates using bioluminescence assay (3-5).

NPC1 [2] = target: T1, NPC1; experiment: Effects of U18666A with LDL on WT acinar cells; assay type: cell-based; details: LDL 30 μg/mL + 10 μM U18666A, 16 hours
Experimental: as §5
To examine the effect of disrupted cholesterol turnover, WT acinar cells were incubated with LDL-cholesterol in the presence and absence of the NPC1 inhibitor U18666A. U18666A caused cholesterol accumulation in LE/Ly (filipin staining; FIG. 10K), resulting in impaired autophagy (manifested by concomitant accumulation of LC3-II and ubiquitylated proteins) and increases in CHOP and Parkin (FIG. 10L).
Immunoblots were developed using enhanced chemiluminescence detection kit (Pierce), and band intensities were quantified by densitometry using FluorChem HD2 imaging system (Alpha Innotech/ProteinSimple).
Staining for neutral lipids and free cholesterol was performed by incubation of fixed-frozen tissue sections or fixed cells with, respectively, 2 μg/ml BODIPY493/503 for 45 min or 100 µg/ml filipin for 2 h at room temperature. For double labeling, BODIPY493/503 or filipin were applied after fixed-frozen tissue or cell sections incubated with primary and secondary antibodies.

[3] = supramaximal (100 nM) CCK-8 or carbachol, ex vivo AP

cholesterol content in WT mouse pancreas, U18666A (NPC1 [1]; 10 mg/kg daily i.p.)	LC3-II in mouse pancreas (NPC1 [1]; 10 mg/kg i.p. daily)	acinar cell vacuolization, mice (NPC1 [1]; 10 mg/kg i.p. daily)	inflammation, mouse pancreas (NPC1 [1]; 10 mg/kg i.p. daily)	p62 in mouse pancreas (NPC1 [1]; 10 mg/kg i.p. daily)	ubiquitylated proteins in mouse pancreas (NPC1 [1]; 10 mg/kg i.p. daily)	CHOP, acinar cells (NPC1 [2])	LC3-II (impaired autophagy), acinar cells (NPC1 [2])	Parkin, acinar cells (NPC1 [2])	cholesterol in LE/Ly (filipin staining) (NPC1 [2])	ubiquitylated proteins (impaired autophagy), acinar cells (NPC1 [2])	Compound	cholesterol overload, mouse acinar cells (mouse acinar cells)	cholesterol overload, human acinar cells (human acinar cells)	necrosis, mouse pancreas (NPC1 [1]; 10 mg/kg i.p. daily, up to ~) [%]	total cholesterol in acinar cells, physiologic doses (mouse acinar cells; physiologic doses of CCK or carbachol)	cholesterol content, mouse acinar cells, supramaximal stimulation (mouse acinar cells; [3])	cholesterol content, human acinar cells, supramaximal stimulation (human acinar cells; [3])
–	–	–	–	–	–	–	–	–	–	–	C[C@H](CCC(=O)NCCS(=O)(=O)O)[C@H]1CC[C@H]2[C@@H]3CC[C@@H]4C[C@H](OS(=O)(=O)O)CC[C@]4(C)[C@H]3CC[C@]12C [TLCS]	prominent	prominent	–	–	–	–
elevated	accumulation	increased	inflammation	accumulation	accumulation	increases	accumulation	increases	accumulation	accumulation	CCN(CC)CCO[C@H]1CC[C@@]2(C)C(=CC[C@@H]3[C@@H]2CC[C@]2(C)C(=O)CC[C@@H]32)C1 [U18666A, 3-beta-[2-(diethylamino)ethoxy] androst-5-en-17-one]	–	–	≤ 20	–	–	–
–	–	–	–	–	–	–	–	–	–	–	C[N+](C)(C)CCOC(N)=O [carbachol]	prominent	prominent	–	did not alter	increased	increased

From patent US20260325485A1, “COMPOSITIONS AND METHODS FOR TREATING PANCREATITIS” (The United States Government as represented by the …, priority 2022, published 2026)
